Laboratory results: patent US20150299125A1, “PRODRUG BIPYRIDYLAMINOPYRIDINES AS SYK INHIBITORS” (MERCK SHARP & DOHME CORP., priority 2012, published 2015)
≈ marks a conversion by molar mass, not a printed value. Like-named read-outs stand apart in the source and are kept apart here.

Experiments:
[1] = Solubility in biorelevant fasted state simulated intestinal fluid (FaSSIF); type: physicochemical; conditions: 25 °C, fassif, kinetic from dmso stock, Solubility
Method in brief: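 Compound from 10 mM DMSO stock diluted into FaSSIF (maximum solubility approximately 200 μM), equilibrated, then filtered by centrifugation through a 0.45 μm polypropylene membrane. Filtrate and a 100 μM standard analysed by HPLC/DAD; solubility = (sample peak area/standard peak area) × standard concentration.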

[2] = target: T1, recombinant human GST-Syk (Homo sapiens, UniProt P43405); assay: Homogeneous Time-Resolved Fluorescence (HTRF) assay for the recombinant human Syk enzyme; type: biochemical; conditions: ATP 25 μM
T1 construct: purchased Carna Biosciences 08-176
Method in brief: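 Recombinant GST-hSyk phosphorylates a biotinylated peptide for 45 min at room temperature. Quenched with EDTA buffer containing 2 nM Eu-anti-phosphotyrosine antibody and 70 nM SA-APC; HTRF read after 30 min.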

[3] = Conversion of prodrug to parent in in vitro biorelevant gastrointestinal tract media; type: in vitro ADME; conditions: 37° C.; for Conversion in SGF, time: simulated gastric fluid
Experimental: Conversion of Prodrug to Parent in In Vitro Biorelevant Gastrointestinal Tract Media: The likely stability of prodrugs in the gastrointestinal tract can be estimated by incubating a prodrug in simulated gastric and intestinal fluids; compounds were measured for stability in simulated gastric fluid (SGF), fasted state simulated intestinal fluid (FaSSIF), and fasted state simulated intestinal fluid plus pancreatin (FaSSIF+pancreatin). Prodrug stock solutions were made by diluting 2 mg of compound in 200 μL DMSO. A 10 mg/mL Pancreatin in FaSSIF stock solution was made by dissolving 10 mg Pancreatin in 1 mL FaSSIF. Samples were prepared by diluting 10 μL of compound stock solution into 990 μL of biorelevant media (990 μL SGF, 990 μL FaSSIF, or 940 μL FaSSIF plus 50 μL Pancreatin stock) in a 2 mL HPLC vial and vortexing the mixture for a few seconds. The samples were incubated at 37° C. and aliquots were removed for up to 24 hours and injected directly on an HPLC to determine the conversion of prodrug to active drug. In the case of compound precipitation upon sample preparation, an individual sample was prepared for each desired time point and the entire sample was diluted with a known volume of acetonitrile/water (50/50) to ensure compound dissolution before HPLC analysis.

[4] = recombinant human GST-Syk 5 pM, read-out: IC50

| solubility [1] [µM] | IC50 [2, 4] [nM] | Conversion in FaSSIF + Pancreatin, time ([3]; 3 h) | Conversion in FaSSIF, time ([3]; 5 h) | Conversion in SGF, time ([3]; 5 h) | SMILES | also measured |
| --- | --- | --- | --- | --- | --- | --- |
| 167 (≈ 96.8 µg/mL) | 2.3 | 100%, 3 h | 0%, 5 h | 0%, 5 h | Cc1cc(Nc2cc(C(F)F)ccn2)nc(-c2ccc([C@](C)(O)[C@H]3CC[C@H](C(=O)OCC4CCNCC4)CC3)nc2)c1 [Example 1-21, piperidin-4-ylmethyl trans-4-[(1R)-1-(6-{[4-(difluoromethyl)pyridin-2-yl]amino}-4-methyl-2,3′-bipyridin-6′-yl)-1-hydroxyethyl] cyclohexanecarboxylate] | – |
| 183 (≈ 101 µg/mL) | 1.8 | 100%, 3 h | 0%, 5 h | 0%, 5 h | CNCCCOC(=O)[C@H]1CC[C@H]([C@@](C)(O)c2ccc(-c3cc(C)cc(Nc4cc(C(F)F)ccn4)n3)cn2)CC1 [Example 1-22, 3-(methylamino)propyl trans-4-[(1R)-1-(6-{[4-(difluoromethyl)pyridin-2-yl]amino}-4-methyl-2,3′-bipyridin-6′-yl)-1-hydroxyethyl] cyclohexanecarboxylate] | – |
| 131 (≈ 75.9 µg/mL) | 1.6 | 100%, 3 h | 0%, 5 h | 0%, 5 h | Cc1cc(Nc2cc(C(F)F)ccn2)nc(-c2ccc([C@](C)(O)[C@H]3CC[C@H](C(=O)O[C@H]4CC[C@H](N)CC4)CC3)nc2)c1 [Example 1-23, trans-4-aminocyclohexyl trans-4-[(1R)-1-(6-{[4-(difluoromethyl)pyridin-2-yl]amino}-4-methyl-2,3′-bipyridin-6′-yl)-1-hydroxyethyl] cyclohexanecarboxylate] | – |
| – | 7.3 | – | 0%, 5 h | 0%, 5 h | Cc1cc(Nc2cc(C(F)F)ccn2)nc(-c2ccc([C@](C)(O)[C@H]3CC[C@H](C(=O)Oc4ccc(C#N)cc4)CC3)nc2)c1 [Example 1-29, 4-cyanophenyl trans-4-[(1R)-1-(6-{[4-(difluoromethyl)pyridin-2-yl]amino}-4-methyl-2,3′-bipyridin-6′-yl)-1-hydroxyethyl] cyclohexanecarboxylate] | Conversion in FaSSIF + Pancreatin, time ([3]; 24 h): 44%, 24 h |
| – | 5.3 | 100%, 3 h | – | 0%, 5 h | Cc1cc(Nc2cc(C(F)F)ccn2)nc(-c2ccc([C@](C)(O)[C@H]3CC[C@H](C(=O)OCOC(=O)OCCOCCOCCOCCO)CC3)nc2)c1 [Example 2-4, 15-hydroxy-3-oxo-2,4,7,10,13-pentaoxapentadec-1-yl trans-4-[(1R)-1-(6-{[4-(difluoromethyl)pyridin-2-yl]amino}-4-methyl-2,3′-bipyridin-6′-yl)-1-hydroxyethyl]cyclo hexanecarboxylate] | Conversion in FaSSIF, time ([3]; 24 h): 5%, 24 h |
| – | < 0.5 | 95%, 3 h | 0%, 5 h | 0%, 5 h | CCOCCOC(=O)OCOC(=O)[C@H]1CC[C@H]([C@@](C)(O)c2ccc(-c3cc(C)cc(Nc4cc(C(F)F)ccn4)n3)cn2)CC1 [Example 2-6, {[(2-ethoxyethoxy)carbonyl]oxy}methyl trans-4-[(1R)-1-(6-{[4-(difluoromethyl)pyridin-2-yl]amino}-4-methyl-2,3′-bipyridin-6′-yl)-1-hydroxyethyl]cyclo hexanecarboxylate] | – |
| 119 (≈ 81.4 µg/mL) | 78 | 20%, 3 h | 0%, 5 h | 0%, 5 h | Cc1cc(Nc2cc(C(F)F)ccn2)nc(-c2ccc([C@](C)(O)[C@H]3CC[C@H](C(=O)OCOC(=O)OCCCCCCN(C)C)CC3)nc2)c1 [Example 2-7, [({[6-(dimethylamino)hexyl]oxy}carbonyl)oxy]methyl trans-4-[(1R)-1-(6-{[4-(difluoromethyl)pyridin-2-yl]amino}-4-methyl-2,3′-bipyridin-6′-yl)-1-hydroxyethyl]cyclo hexanecarboxylate] | – |
| – | 27.2 | 65%, 3 h | 0%, 5 h | – | Cc1cc(Nc2cc(C(F)F)ccn2)nc(-c2ccc([C@](C)(O)[C@H]3CC[C@H](C(=O)OCOC(=O)OCC4CCOCC4)CC3)nc2)c1 [Example 2-9, {[(tetrahydro-2H-pyran-4-ylmethoxy)carbonyl]oxy}methyl trans-4-[(1R)-1-(6-{[4-(difluoromethyl)pyridin-2-yl]amino}-4-methyl-2,3′-bipyridin-6′-yl)-1-hydroxyethyl]cyclo hexanecarboxylate] | Conversion in SGF, time ([3]; 3 h): 2%, 3 h |
| 155 | 0.7 | – | – | – | Cc1cc(Nc2cc(C(F)F)ccn2)nc(-c2ccc([C@](C)(O)[C@H]3CC[C@H](C(=O)OC[N+](C)(C)CCOC(=O)c4ccccc4)CC3)nc2)c1 [Example 5-25, N-{[({trans-4-[(1R)-1-(6-{[4-(difluoromethyl)pyridin-2-yl]amino}-4-methyl-2,3′-bipyridin-6′-yl)-1-hydroxyethyl]cyclohexyl}carbonyl)oxy]methyl}-N,N-dimethyl-2-[(phenylcarbonyl)oxy]ethanaminium] | – |
| 68 | 2 | – | – | – | Cc1cc(Nc2cc(C(F)F)ccn2)nc(-c2ccc([C@](C)(O)[C@H]3CC[C@H](C(=O)OC[N+]4(C)CCN(C)CC4)CC3)nc2)c1 [Example 5-26, 1-{[({trans-4-[(1R)-1-(6-{[4-(difluoromethyl)pyridin-2-yl]amino}-4-methyl-2,3′-bipyridin-6′-yl)-1-hydroxyethyl]cyclohexyl}carbonyl)oxy]methyl}-1,4-dimethylpiperazin-1-ium] | – |
| 164 | 1.5 | – | – | – | Cc1cc(Nc2cc(C(F)F)ccn2)nc(-c2ccc([C@](C)(O)[C@H]3CC[C@H](C(=O)OC[N+]4(C)CCC(O)CC4)CC3)nc2)c1 (stereo partly drawn) [Example 5-27, 1-{[({trans-4-[(1R)-1-(6-{[4-(difluoromethyl)pyridin-2-yl]amino}-4-methyl-2,3′-bipyridin-6′-yl)-1-hydroxyethyl]cyclohexyl}carbonyl)oxy]methyl}-4-hydroxy-1-methylpiperidinium] | – |
| 176 | < 0.5 | – | – | – | Cc1cc(Nc2cc(C(F)F)ccn2)nc(-c2ccc([C@](C)(O)[C@H]3CC[C@H](C(=O)OC[N+]4(C)CCC(CO)CC4)CC3)nc2)c1 (stereo partly drawn) [Example 5-29, 1-{[({trans-4-[(1R)-1-(6-{[4-(difluoromethyl)pyridin-2-yl]amino}-4-methyl-2,3′-bipyridin-6′-yl)-1-hydroxyethyl]cyclohexyl}carbonyl)oxy]methyl}-4-(hydroxymethyl)-1-methylpiperidinium] | – |
| 141 (≈ 82.7 µg/mL) | 4.3 | – | – | – | Cc1cc(Nc2cc(C(F)F)ccn2)nc(-c2ccc([C@](C)(O)[C@H]3CC[C@H](C(=O)OCCC[S+](C)[O-])CC3)nc2)c1 (stereo partly drawn) [Example 7-4, 3-(methylsulfinyl)propyl trans-4-[(1R)-1-(6-{[4-(difluoromethyl)pyridin-2-yl]amino}-4-methyl-2,3′-bipyridin-6′-yl)-1-hydroxyethyl]cyclohexane carboxylate] | – |
| 162 (≈ 98.5 µg/mL) | 3.2 | – | – | – | Cc1cc(Nc2cc(C(F)F)ccn2)nc(-c2ccc([C@](C)(O)[C@H]3CC[C@H](C(=O)O[C@H]4CC[C@H](N(C)C)CC4)CC3)nc2)c1 [Example 9-1, Trans-4-(Dimethylamino)cyclohexyl trans-4-[(1R)-1-(6-{[4-(difluoromethyl)pyridin-2-yl]amino}-4-methyl-2,3′-bipyridin-6′-yl)-1-hydroxyethyl]cyclohexanecarboxylate] | – |
| – | < 0.5 | – | 20%, 5 h | 5%, 5 h | Cc1cc(Nc2cc(C(F)F)ccn2)nc(-c2ccc([C@](C)(O)[C@H]3CC[C@H](C(=O)OCOP(=O)(O)O)CC3)nc2)c1 [Example 10-1, (Phosphonooxy)methyl trans-4-[(1R)-1-(6-{[4-(difluoromethyl)pyridin-2-yl]amino}-4-methyl-2,3′-bipyridin-6′-yl)-1-hydroxyethyl]cyclohexanecarboxylate] | Conversion in FaSSIF + Pancreatin, time ([3]; 5 h): 50%, 5 h |

| SMILES | solubility [1] [µM] | IC50 [2, 4] [nM] | Conversion in FaSSIF + Pancreatin, time ([3]; 3 h) | Conversion in FaSSIF, time ([3]; 5 h) | Conversion in SGF, time ([3]; 5 h) | also measured |
| --- | --- | --- | --- | --- | --- | --- |
| Cc1cc(Nc2cc(C(F)F)ccn2)nc(-c2ccc([C@](C)(O)[C@H]3CC[C@H](C(=O)O)CC3)nc2)c1 [PrepEx 1-5, trans-4-[(1R)-(6-{[4-(Difluoromethyl)pyridin-2-yl]amino}-4-methyl-2,3′-bipyridin-6′-yl)-1-hydroxyethyl]cyclohexanecarboxylic acid] | < 3 | – | – | – | – | IC50 ([2]; IC50, recombinant human GST-Syk 5 pM): < 0.5 nM |
